pIC50: −log10 of the molar value. The source made the active and inactive calls. No cut-off for these calls is given here.
Assays:
[1] = Selectivity index, ratio of IC50 for human CRL1790 cells assessed as inhibition of cell growth to IC50 for human HCT116 cells assessed as inhibition of cell growth; format: toxicity; details: CRL1790 cells versus HCT116 cells, read-out: Ratio IC50
[2] = system: CCD-841CoN; assay: Cytotoxicity against human CRL1790 cells assessed as inhibition of cell growth; format: cell-based
[3] = system: HCT-116; assay: Cytotoxicity against human HCT116 cells assessed as inhibition of cell growth; format: functional, cell-based
[4] = system: HCT-116; assay: Induction of mitochondrial membrane potential loss in human HCT116 cells at IC50; format: functional, cell-based
[5] = system: HCT-116; assay: Induction of mitochondrial membrane potential loss in human HCT116 cells at 2 times IC50; format: functional, cell-based
[6] = system: HCT-116; assay: Induction of ROS generation in human HCT116 cells assessed as increase in ROS level at IC50; format: functional, cell-based
[7] = system: HCT-116; assay: Induction of ROS generation in human HCT116 cells assessed as increase in ROS level at 2 times IC50; format: functional, cell-based
[8] = system: HCT-116; assay: Induction of apoptosis in human HCT116 cells assessed as apoptotic cells at 0.23 uM (reference value: 2.4 %); format: functional
[9] = system: HCT-116; assay: Cell cycle arrest in human HCT116 cells assessed as accumulation at G0/G1 phase at 0.23 uM (reference value: 46.8 %); format: functional
[10] = system: HCT-116; assay: Cell cycle arrest in human HCT116 cells assessed as accumulation at S phase at 0.23 uM (reference value: 18.4 %); format: functional
[11] = system: HCT-116; assay: Cell cycle arrest in human HCT116 cells assessed as accumulation at G2/M phase at 0.23 uM (reference value: 29.4 %); format: functional
[12] = system: HCT-116; assay: Cell cycle arrest in human HCT116 cells assessed as accumulation of diploid cells at 0.23 uM (reference value: 2.5 %); format: functional
[13] = Stability of compound in mixture of DMSO and phosphate buffer at 37 degree C incubated for 48 hrs by H-NMR spectroscopy; format: physicochemical
[14] = system: HCT-116; assay: Induction of apoptosis in human HCT116 cells assessed as apoptotic cells at 10.96 uM (reference value: 2.4 %); format: functional
[15] = system: HCT-116; assay: Cell cycle arrest in human HCT116 cells assessed as accumulation at G0/G1 phase at 10.96 uM (reference value: 46.8 %); format: functional
[16] = system: HCT-116; assay: Cell cycle arrest in human HCT116 cells assessed as accumulation at S phase at 10.96 uM (reference value: 18.4 %); format: functional
[17] = system: HCT-116; assay: Cell cycle arrest in human HCT116 cells assessed as accumulation at G2/M phase at 10.96 uM (reference value: 29.4 %); format: functional
[18] = system: HCT-116; assay: Cell cycle arrest in human HCT116 cells assessed as accumulation of diploid cells at 10.96 uM (reference value: 2.5 %); format: functional
[19] = system: HCT-116; assay: Potency index, ratio of 5-fluorouracil IC50 to test compound IC50 for human HCT116 cells assessed as inhibition of cell growth; format: functional
[20] = system: HCT-116; assay: Induction of apoptosis in human HCT116 cells assessed as apoptotic cells at 0.28 uM (reference value: 2.4 %); format: functional
[21] = system: HCT-116; assay: Cell cycle arrest in human HCT116 cells assessed as accumulation at G0/G1 phase at 10.96 uM (reference value: 0.28 %); format: functional
[22] = system: HCT-116; assay: Cell cycle arrest in human HCT116 cells assessed as accumulation at S phase at 0.28 uM (reference value: 18.4 %); format: functional
[23] = system: HCT-116; assay: Cell cycle arrest in human HCT116 cells assessed as accumulation at G2/M phase at 0.28 uM (reference value: 29.4 %); format: functional
[24] = system: HCT-116; assay: Cell cycle arrest in human HCT116 cells assessed as accumulation of diploid cells at 0.28 uM (reference value: 2.5 %); format: functional
[25] = system: HCT-116; assay: Induction of apoptosis in human HCT116 cells assessed as apoptotic cells at 0.03 uM (reference value: 2.4 %); format: functional
[26] = system: HCT-116; assay: Cell cycle arrest in human HCT116 cells assessed as accumulation at G0/G1 phase at 0.03 uM (reference value: 46.8 %); format: functional
[27] = system: HCT-116; assay: Cell cycle arrest in human HCT116 cells assessed as accumulation at S phase at 0.03 uM (reference value: 18.4 %); format: functional
[28] = system: HCT-116; assay: Cell cycle arrest in human HCT116 cells assessed as accumulation at G2/M phase at 0.03 uM (reference value: 29.4 %); format: functional
[29] = system: HCT-116; assay: Cell cycle arrest in human HCT116 cells assessed as accumulation of diploid cells at 0.03 uM (reference value: 2.5 %); format: functional

SMILES | selectivity ratio [1] | pIC50 [2] | pIC50 [3] | further results
O=C1/C(=C/c2ccc(O)cc2)CN(C(=O)C(Cl)Cl)C/C1=C\c1ccc(O)cc1 | 3.58 | 4.86 | 5.41 | 
O=C1/C(=C/c2ccccc2)CN(C(=O)C(Cl)Cl)C/C1=C\c1ccccc1 | 54.4 | 4.90 | 6.64 | Activity [4]: Active; Activity [5]: Active; Activity [6]: Active; Activity [7]: Active; Activity [8]: 3.6%; Activity [9]: 44.7%; Activity [10]: 19.9%; Activity [11]: 29.6%; Activity [12]: 1.8%; Stability [13]: Stable
CN(C)c1ccc(/C=C2\CN(C(=O)C(Cl)Cl)C/C(=C\c3ccc(N(C)C)cc3)C2=O)cc1 | 0.69 | 5.04 | 4.88 | Activity [4]: inactive; Activity [5]: inactive; Activity [6]: Active; Activity [7]: Active; Activity [14]: 4.6%; Activity [15]: 42.9%; Activity [16]: 20.8%; Activity [17]: 29.9%; Activity [18]: 1.4%
O=C1/C(=C/c2ccc(F)cc2)CN(C(=O)C(Cl)Cl)C/C1=C\c1ccc(F)cc1 | 292 | 4.84 | 7.30 | 
COc1cc(/C=C2\CN(C(=O)C(Cl)Cl)C/C(=C\c3cc(OC)c(OC)c(OC)c3)C2=O)cc(OC)c1OC | 378 | 4.82 | 7.40 | Ratio IC50 [19]: >100
O=C1/C(=C/c2ccccc2)CNC/C1=C\c1ccccc1 | 2.7 | 5.02 | 5.46 | 
CC(=O)N1C/C(=C\c2ccccc2)C(=O)/C(=C/c2ccccc2)C1 | 74.3 | 4.68 | 6.55 | Activity [4]: Active; Activity [5]: Active; Activity [6]: Active; Activity [7]: Active; Activity [20]: 3.5%; Activity [21]: 45.5%; Activity [22]: 18.3%; Activity [23]: 30%; Activity [24]: 2.4%
O=C1/C(=C/c2ccc(F)c(F)c2)CN(C(=O)C(Cl)Cl)C/C1=C\c1ccc(F)c(F)c1 | 185 | 4.95 | 7.22 | 
COc1ccc(/C=C2\CN(C(=O)C(Cl)Cl)C/C(=C\c3ccc(OC)cc3)C2=O)cc1 | 48.9 | 4.88 | 6.57 | 
O=C1/C(=C/c2ccc3c(c2)OCO3)CN(C(=O)C(Cl)Cl)C/C1=C\c1ccc2c(c1)OCO2 | 65.9 | 4.68 | 6.49 | 
COc1ccc(/C=C2\CN(C(=O)C(Cl)Cl)C/C(=C\c3ccc(OC)c(OC)c3)C2=O)cc1OC | 96.4 | 4.97 | 6.96 | 
O=C([O-])C(Cl)Cl.[Na+] [SODIUM DICHLOROACETATE] | 0.85 | 4.90 | 4.83 | 
Cc1ccc(/C=C2\CN(C(=O)C(Cl)Cl)C/C(=C\c3ccc(C)cc3)C2=O)cc1 | 540 | 4.79 | 7.52 | Ratio IC50 [19]: >100
O=C1/C(=C/c2ccc(Cl)c(Cl)c2)CN(C(=O)C(Cl)Cl)C/C1=C\c1ccc(Cl)c(Cl)c1 | 305 | 4.91 | 7.40 | Ratio IC50 [19]: >100
CC(C)(C)C(=O)N1C/C(=C\c2ccc(OC(=O)C(Cl)Cl)cc2)C(=O)/C(=C/c2ccc(OC(=O)C(Cl)Cl)cc2)C1 | 71.3 | 4.79 | 6.64 | 
O=C1/C(=C/c2ccc([N+](=O)[O-])cc2)CN(C(=O)C(Cl)Cl)C/C1=C\c1ccc([N+](=O)[O-])cc1 | 370 | 4.95 | 7.52 | Ratio IC50 [19]: >100; Activity [4]: Active; Activity [5]: Active; Activity [6]: Active; Activity [7]: Active; Activity [25]: 3.6%; Activity [26]: 44.4%; Activity [27]: 21.4%; Activity [28]: 27.8%; Activity [29]: 2.2%
O=C1/C(=C/c2ccc(Cl)cc2)CN(C(=O)C(Cl)Cl)C/C1=C\c1ccc(Cl)cc1 | 115 | 4.83 | 6.89 | 
O=C1/C(=C/c2ccccc2F)CN(C(=O)C(Cl)Cl)C/C1=C\c1ccccc1F | 52.4 | 4.96 | 6.68 | 
O=C1/C(=C/c2cccc(F)c2)CN(C(=O)C(Cl)Cl)C/C1=C\c1cccc(F)c1 | 135 | 4.83 | 6.96 | 
O=c1[nH]cc(F)c(=O)[nH]1 [FLUOROURACIL] | 4.65 | 4.73 | 5.40 | Activity [4]: Active; Activity [5]: Active; Activity [6]: Active; Activity [7]: Active

— ChEMBL document CHEMBL4610019, “Novel hybrid molecules of 3,5-bis(benzylidene)-4-piperidones and dichloroacetic acid which demonstrate potent tumour-selective cytotoxicity” (Bioorg Med Chem Lett, 2020)
